Numbered stars: 1 amine (or outer) side, 2 acyl side, 3 side chain; on linkers, the order of the positions; unused ones are H or OH. Bridge positions count the residues as written; N and C are the ends. Square brackets hold non-standard residues; d marks the D form. Peptide text beside a SMILES is read from it. * marks the point of attachment. ξ: configuration not given here. Phe(3-CF3) = N[C@@H](Cc1cccc(C(F)(F)F)c1)C(=O)O; Phe(4-COOH) = N[C@@H](Cc1ccc(C(=O)O)cc1)C(=O)O; Phe(3,4-F2) = N[C@@H](Cc1ccc(F)c(F)c1)C(=O)O; Bip = N[C@@H](Cc1ccc(-c2ccccc2)cc1)C(=O)O; NH(CH2)14COOH = O=C(O)CCCCCCCCCCCCCCN*; Phe(3-Me) = Cc1cccc(C[C@H](N)C(=O)O)c1; Phe(4-F) = N[C@@H](Cc1ccc(F)cc1)C(=O)O; γGlu = O=C(O)[C@H](CCC(=O)[*:2])N[*:1]; βAsp = O=C(O)[C@H](CC(=O)[*:2])N[*:1]; Val(3-OH) = CC(C)(O)[C@H](N)C(=O)O; hArg = N=C(N)NCCCC[C@H](N)C(=O)O; Cha = N[C@@H](CC1CCCCC1)C(=O)O; Cit = NC(=O)NCCC[C@H](N)C(=O)O; Thr(3ξ) = CC(O)[C@H](N)C(=O)O; Dap(Me) = CNC[C@H](N)C(=O)O; 12Ado = NCCCCCCCCCCCC(=O)O; Carboxymethyl = O=C(O)C*; Nle = CCCC[C@H](N)C(=O)O; Orn = NCCC[C@H](N)C(=O)O; Aun = NCCCCCCCCCCC(=O)O; Dab = NCC[C@H](N)C(=O)O; Dap = NC[C@H](N)C(=O)O; AEEA = NCCOCCOCC(=O)O; Piv = CC(C)(C)C(=O)*
target: T1, PD-1/PD-L1 interaction (PE-labeled human PD-L1-Ig binding to Jurkat cell line over-expressing human PD-1) (Homo sapiens, UniProt Q15116); test: Jurkat-PD-1 Cell Binding High-Content Screening Assay (CBA); format: cell-based; conditions: Jurkat cell line over-expressing human PD-1; PE-labeled PD-L1-Ig 20 nM final; read-out: Jurkat hPD1-PDL1 IC50
T1 construct: expressed in transfected cells; host or cells: Jurkat
How it was run: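 First, compound is added to PD-1-expressing Jurkat cells in serum-containing DMEM and left 2 h at 37° C. Next, PE-conjugated PD-L1-Ig is introduced at 20 nM final concentration for 1 hour. Finally, cells are fixed in 4% paraformaldehyde with Hoechst 33342, washed and imaged.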

T1 sequence (Q15116 25-288): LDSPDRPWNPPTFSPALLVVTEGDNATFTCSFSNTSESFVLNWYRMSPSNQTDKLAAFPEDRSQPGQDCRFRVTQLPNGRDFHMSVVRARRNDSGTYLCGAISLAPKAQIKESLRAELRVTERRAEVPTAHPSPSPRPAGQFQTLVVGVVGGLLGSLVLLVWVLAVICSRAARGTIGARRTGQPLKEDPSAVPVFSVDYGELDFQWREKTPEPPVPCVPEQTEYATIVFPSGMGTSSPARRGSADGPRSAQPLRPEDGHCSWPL

IC50 [nM]	SMILES
631	CCCC[C@@H]1NC(=O)CSC[C@@H](C(=O)N[C@@H](CCN)C(=O)NCCCCCCCCCCCCCCC(=O)O)NC(=O)[C@H](CO)NC(=O)[C@H](C(C)(C)O)NC(=O)[C@H](CC2CCCCC2)NC(=O)[C@H](CCN)NC(=O)[C@@H](CC(C)C)NC(=O)[C@H](CCCN)NC(=O)[C@H](Cc2ccc(C(=O)O)cc2)NC(=O)[C@H](Cc2ccc(-c3ccccc3)cc2)NC(=O)[C@H](Cc2ccc(C(=O)O)cc2)NC(=O)[C@H](Cc2cccc(C(F)(F)F)c2)NC(=O)[C@H](CC(=O)O)NC(=O)[C@H](Cc2ccc(OCC(=O)O)cc2)NC1=O [Compound 2913] ({CH2CO}-[Nle]Y(Carboxymethyl)D[Phe(3-CF3)][Phe(4-COOH)][Bip][Phe(4-COOH)][Orn][dL][Dab][Cha][Val(3-OH)]SC[Dab]-{NH(CH2)14COOH}; thioether N-14)
9.6	Cc1cccc(C[C@@H]2NC(=O)[C@H](CC(=O)O)NC(=O)[C@H](Cc3ccc(OCC(=O)O)cc3)NC(=O)[C@H](CCCNC(=N)N)NC(=O)CSC[C@@H](C(=O)N[C@@H](CCCCN)C(=O)NCCCCCCCCCCC(=O)O)NC(=O)[C@H](CCCN)NC(=O)[C@H](C(C)C)NC(=O)[C@H](CC3CCCCC3)NC(=O)[C@H](CCN)NC(=O)[C@@H](CC(C)C)NC(=O)[C@H](CCCN)NC(=O)[C@H](C(C)C)NC(=O)[C@H](Cc3ccc(-c4ccccc4)cc3)NC(=O)[C@H](C(C)C)NC2=O)c1 [Compound 3219] ({CH2CO}-RY(Carboxymethyl)D[Phe(3-Me)]V[Bip]V[Orn][dL][Dab][Cha]V[Orn]CK[Aun]-OH; thioether N-14)
19.6	CC(C)C[C@H]1NC(=O)[C@H](CCCN)NC(=O)[C@H](Cc2ccc(O)cc2)NC(=O)[C@H](Cc2ccc(-c3ccccc3)cc2)NC(=O)[C@H](C(C)C)NC(=O)[C@H](Cc2ccc(F)cc2)NC(=O)[C@H](CC(=O)O)NC(=O)[C@H](Cc2ccc(OCC(=O)O)cc2)NC(=O)[C@H](CN)NC(=O)CSC[C@@H](C(=O)N[C@@H](CCN)C(=O)NCCOCCOCC(=O)NCCCCCCCCCCC(=O)O)NC(=O)[C@H](CCCN)NC(=O)[C@H](C(C)C)NC(=O)[C@H](CC2CCCCC2)NC(=O)[C@H](CCN)NC1=O [Compound 1294] ({CH2CO}-[Dap]Y(Carboxymethyl)D[Phe(4-F)]V[Bip]Y[Orn][dL][Dab][Cha]V[Orn]C[Dab][AEEA][Aun]-OH; thioether N-14)
6.5	Cc1cccc(C[C@@H]2NC(=O)[C@H](CC(=O)O)NC(=O)[C@H](Cc3ccc(OCC(=O)O)cc3)NC(=O)[C@H](CCCNC(=N)N)NC(=O)CSC[C@@H](C(=O)N[C@@H](CCN)C(=O)NCCCCCCCCCCC(=O)O)NC(=O)[C@H](CCCNC(N)=O)NC(=O)[C@H](C(C)C)NC(=O)[C@H](CC3CCCCC3)NC(=O)[C@H](CCN)NC(=O)[C@@H](CC(C)C)NC(=O)[C@H](CCCN)NC(=O)[C@H](CCC(N)=O)NC(=O)[C@H](Cc3ccc(-c4ccccc4)cc3)NC(=O)[C@H](C(C)C)NC2=O)c1 [Compound 3305] ({CH2CO}-RY(Carboxymethyl)D[Phe(3-Me)]V[Bip]Q[Orn][dL][Dab][Cha]V[Cit]C[Dab][Aun]-OH; thioether N-14)
17.7	CC(C)C[C@H]1NC(=O)[C@H](CCCN)NC(=O)[C@H](Cc2c[nH]cn2)NC(=O)[C@H](Cc2ccc(-c3ccccc3)cc2)NC(=O)[C@H](C(C)C)NC(=O)[C@H](Cc2c[nH]c3ccccc23)NC(=O)[C@H](CC(=O)O)NC(=O)[C@H](Cc2ccc(OCC(=O)O)cc2)NC(=O)[C@H](C(C)O)NC(=O)CSC[C@@H](C(=O)N[C@@H](CC(=O)NCCOCCOCC(=O)N[C@@H](CCCN)C(=O)NCCCCCCCCCCC(=O)O)C(=O)O)NC(=O)[C@H](CO)NC(=O)[C@H](C(C)C)NC(=O)[C@H](CC2CCCCC2)NC(=O)[C@H](CCN)NC1=O (stereo partly drawn) [Compound 3056] ({CH2CO}-[Thr(3ξ)]Y(Carboxymethyl)DWV[Bip]H[Orn][dL][Dab][Cha]VSC[βAsp][AEEA][Orn][Aun]-OH; thioether N-14)
162	CNC[C@@H]1NC(=O)CSC[C@@H](C(=O)N[C@@H](CCN)C(=O)NCCCCCCCCCCC(=O)O)NC(=O)[C@H](CO)NC(=O)[C@H](C(C)O)NC(=O)[C@H](CC2CCCCC2)NC(=O)[C@H](CCN)NC(=O)[C@@H](CC(C)C)NC(=O)[C@H](CCCN)NC(=O)[C@H](Cc2ccc(O)cc2)NC(=O)[C@H](Cc2ccc(-c3ccccc3)cc2)NC(=O)[C@H](CCCCNC(=O)C(C)(C)C)NC(=O)[C@H](Cc2cccc(C)c2)NC(=O)[C@H](CC(=O)O)NC(=O)[C@H](Cc2ccc(OCC(=O)O)cc2)NC1=O (stereo partly drawn) [Compound 3596] ({CH2CO}-[Dap(Me)]Y(Carboxymethyl)D[Phe(3-Me)]K(Piv)[Bip]Y[Orn][dL][Dab][Cha][Thr(3ξ)]SC[Dab][Aun]-OH; thioether N-14)
31.9	CC(C)C[C@H]1NC(=O)[C@H](CCCN)NC(=O)[C@H](Cc2ccc(O)cc2)NC(=O)[C@H](Cc2ccc(-c3ccccc3)cc2)NC(=O)[C@H](C(C)C)NC(=O)[C@H](Cc2ccc(F)c(F)c2)NC(=O)[C@H](CC(=O)O)NC(=O)[C@H](Cc2ccc(OCC(=O)O)cc2)NC(=O)[C@H](CN)NC(=O)CSC[C@@H](C(=O)N[C@@H](CCN)C(=O)NCCOCCOCC(=O)NCCCCCCCCCCC(=O)O)NC(=O)[C@H](CCCN)NC(=O)[C@H](C(C)C)NC(=O)[C@H](CC2CCCCC2)NC(=O)[C@H](CCN)NC1=O [Compound 1301] ({CH2CO}-[Dap]Y(Carboxymethyl)D[Phe(3,4-F2)]V[Bip]Y[Orn][dL][Dab][Cha]V[Orn]C[Dab][AEEA][Aun]-OH; thioether N-14)
6.6	Cc1cccc(C[C@@H]2NC(=O)[C@H](CC(=O)O)NC(=O)[C@H](Cc3ccc(OCC(=O)O)cc3)NC(=O)[C@H](CN)NC(=O)CSC[C@@H](C(=O)N[C@@H](CCC(=O)NCCOCCOCC(=O)NCCCCCCCCCCC(=O)O)C(=O)O)NC(=O)[C@H]([C@@H](C)O)NC(=O)[C@H](C(C)C)NC(=O)[C@H](CC3CCCCC3)NC(=O)[C@H](CCN)NC(=O)[C@@H](CC(C)C)NC(=O)[C@H](CCCN)NC(=O)[C@H](CCCNC(N)=O)NC(=O)[C@H](Cc3ccc(-c4ccccc4)cc3)NC(=O)[C@H](C(C)C)NC2=O)c1 [Compound 1034] ({CH2CO}-[Dap]Y(Carboxymethyl)D[Phe(3-Me)]V[Bip][Cit][Orn][dL][Dab][Cha]VTC[γGlu][AEEA][Aun]-OH; thioether N-14)
11.6	Cc1cccc(C[C@@H]2NC(=O)[C@H](CC(=O)O)NC(=O)[C@H](Cc3ccc(OCC(=O)O)cc3)NC(=O)[C@H](CN)NC(=O)CSC[C@@H](C(=O)N[C@@H](CCN)C(=O)NCCOCCOCC(=O)NCCCCCCCCCCC(=O)O)NC(=O)[C@H](CCCN)NC(=O)[C@H](C(C)C)NC(=O)[C@H](CC3CCCCC3)NC(=O)[C@H](CCN)NC(=O)[C@@H](CC(C)C)NC(=O)[C@H](CCCN)NC(=O)[C@H](Cc3ccc(O)cc3)NC(=O)[C@H](Cc3ccc(-c4ccccc4)cc3)NC(=O)[C@H](Cc3ccc(F)cc3)NC2=O)c1 [Compound 2070] ({CH2CO}-[Dap]Y(Carboxymethyl)D[Phe(3-Me)][Phe(4-F)][Bip]Y[Orn][dL][Dab][Cha]V[Orn]C[Dab][AEEA][Aun]-OH; thioether N-14)
34.5	CC(C)C[C@H]1NC(=O)[C@H](CCCN)NC(=O)[C@H](C(C)C)NC(=O)[C@H](Cc2ccc(-c3ccccc3)cc2)NC(=O)[C@H](C(C)C)NC(=O)[C@H](Cc2c[nH]c3ccccc23)NC(=O)[C@H](CC(=O)O)NC(=O)[C@H](Cc2ccc(OCC(=O)O)cc2)NC(=O)[C@H](CCCCNC(=N)N)NC(=O)CSC[C@@H](C(=O)N[C@@H](CCCN)C(=O)NCCCCCCCCCCCC(=O)O)NC(=O)[C@H](CO)NC(=O)[C@H](C(C)C)NC(=O)[C@H](CC2CCCCC2)NC(=O)[C@H](CC(N)=O)NC1=O [Compound 3156] ({CH2CO}-[hArg]Y(Carboxymethyl)DWV[Bip]V[Orn][dL]N[Cha]VSC[Orn][12Ado]-OH; thioether N-14)
19.4	CC(C)C[C@H]1NC(=O)[C@H](CCCN)NC(=O)[C@H](CCCNC(N)=O)NC(=O)[C@H](Cc2ccc(-c3ccccc3)cc2)NC(=O)[C@H](C(C)C)NC(=O)[C@H](Cc2c[nH]c3ccccc23)NC(=O)[C@H](CC(=O)O)NC(=O)[C@H](Cc2ccc(OCC(=O)O)cc2)NC(=O)[C@H](CCCNC(=N)N)NC(=O)CSC[C@@H](C(=O)N[C@@H](CCC(=O)O)C(=O)NCCOCCOCC(=O)NCCCCCCCCCCC(=O)O)NC(=O)[C@H](C(C)O)NC(=O)[C@H](C(C)C)NC(=O)[C@H](CC2CCCCC2)NC(=O)[C@H](CCN)NC1=O (stereo partly drawn) [Compound 3399] ({CH2CO}-RY(Carboxymethyl)DWV[Bip][Cit][Orn][dL][Dab][Cha]V[Thr(3ξ)]CE[AEEA][Aun]-OH; thioether N-14)
17.1	Cc1cccc(C[C@@H]2NC(=O)[C@H](CC(=O)O)NC(=O)[C@H](Cc3ccc(OCC(=O)O)cc3)NC(=O)[C@H](CN)NC(=O)CSC[C@@H](C(=O)N[C@@H](CCN)C(=O)NCCCCCCCCCCC(=O)O)NC(=O)[C@H]([C@@H](C)O)NC(=O)[C@H](C(C)C)NC(=O)[C@H](CC3CCCCC3)NC(=O)[C@H](CCN)NC(=O)[C@@H](CC(C)C)NC(=O)[C@H](CCCN)NC(=O)[C@H](Cc3ccc(O)cc3)NC(=O)[C@H](Cc3ccc(-c4ccccc4)cc3)NC(=O)[C@H](C(C)C)NC2=O)c1 [Compound 2717] ({CH2CO}-[Dap]Y(Carboxymethyl)D[Phe(3-Me)]V[Bip]Y[Orn][dL][Dab][Cha]VTC[Dab][Aun]-OH; thioether N-14)
22.1	CC(C)C[C@@H]1NC(=O)[C@H](Cc2c[nH]c3ccccc23)NC(=O)[C@H](CC(=O)O)NC(=O)[C@H](Cc2ccc(C(=O)O)cc2)NC(=O)[C@H](Cc2ccc(OCC(=O)O)cc2)NC(=O)CSC[C@@H](C(=O)N[C@@H](CN)C(=O)NCCCCCCCCCCC(=O)O)NC(=O)[C@H](CCCNC(N)=O)NC(=O)[C@H](C(C)C)NC(=O)[C@H](CC2CCCCC2)NC(=O)[C@H](CCN)NC(=O)[C@@H](CC(C)C)NC(=O)[C@H](CCCN)NC(=O)[C@H](Cc2ccc(O)cc2)NC(=O)[C@H](Cc2ccc(-c3ccccc3)cc2)NC1=O [Compound 1233] ({CH2CO}-Y(Carboxymethyl)[Phe(4-COOH)]DWL[Bip]Y[Orn][dL][Dab][Cha]V[Cit]C[Dap][Aun]-OH; thioether N-14)

— patent publication US20260022142A1, “MACROCYCLIC IMMUNOMODULATORS” (Bristol-Myers Squibb Company, priority 2022, published 2026)
